We go through 29 compounds from US20130121994A1, “TRIAZOLOPYRIDINE DERIVATIVES” (BAYER INTELLECTUAL PROPERTY GMBH, priority 2009, published 2013).

In this assay the target is T1, human kinase Mps-1 (Homo sapiens, UniProt P33981).
T1 construct: N-terminally GST-tagged human full length recombinant Mps-1 kinase; GST (N); purchased Invitrogen, Karslruhe, Germany PV4071
T1 sequence (P33981 1-857): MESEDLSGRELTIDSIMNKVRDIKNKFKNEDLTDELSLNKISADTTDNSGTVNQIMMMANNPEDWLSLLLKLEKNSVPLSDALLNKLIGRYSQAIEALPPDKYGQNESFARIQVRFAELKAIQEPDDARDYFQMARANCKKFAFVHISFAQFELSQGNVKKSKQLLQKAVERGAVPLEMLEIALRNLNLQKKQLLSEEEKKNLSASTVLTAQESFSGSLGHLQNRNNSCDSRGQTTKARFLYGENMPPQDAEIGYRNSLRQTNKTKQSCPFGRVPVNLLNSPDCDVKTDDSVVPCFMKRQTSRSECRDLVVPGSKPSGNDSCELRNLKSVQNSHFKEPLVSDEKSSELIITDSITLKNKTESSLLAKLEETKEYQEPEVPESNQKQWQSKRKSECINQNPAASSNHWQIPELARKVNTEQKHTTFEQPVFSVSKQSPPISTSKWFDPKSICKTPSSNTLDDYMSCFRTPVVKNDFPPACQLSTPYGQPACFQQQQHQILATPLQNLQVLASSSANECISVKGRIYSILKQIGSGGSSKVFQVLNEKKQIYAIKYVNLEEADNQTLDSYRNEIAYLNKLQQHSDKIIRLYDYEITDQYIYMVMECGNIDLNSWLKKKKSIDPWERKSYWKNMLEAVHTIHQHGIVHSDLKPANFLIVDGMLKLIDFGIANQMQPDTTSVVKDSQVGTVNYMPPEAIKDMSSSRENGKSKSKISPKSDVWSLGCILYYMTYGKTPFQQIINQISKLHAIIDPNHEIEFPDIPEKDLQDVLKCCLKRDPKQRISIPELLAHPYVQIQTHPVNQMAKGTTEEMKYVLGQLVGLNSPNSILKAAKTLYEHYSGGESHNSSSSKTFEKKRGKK
The assay can be described thus: Mps-1 kinase assay (HTRF). It is filed as biochemical. The method, then: The human kinase Mps-1 phosphorylates a biotinylated substrate peptide. Detection of the phosphorylated product is achieved by homogenous time-resolved fluorescence resonance energy transfer (HTRF) from Europium-labelled anti-phospho-Serine/Threonine antibody as donor to streptavidin labelled with cross-linked allophycocyanin (SA-XLent) as acceptor. Compounds are tested for their inhibition of the kinase activity.
N-terminally GST-tagged human full length recombinant Mps-1 kinase (purchased from Invitrogen, Karslruhe, Germany, cat. no PV4071) was used. As substrate for the kinase reaction a biotinylated peptide of the amino-acid sequence […] (C-terminus in amide form, purchased from Biosynthan GmbH, Berlin) was used.
The concentration of Mps-1 in the assay was adjusted to the activity of the enzyme lot and was chosen appropriate to have the assay in the linear range, typical enzyme concentrations were in the range of about 1 nM (final conc. in the 5 μl assay volume).
The resulting mixture was incubated 1 h at 22° C. to allow the binding of the phosphorylated peptide to the anti-phospho(Ser/Thr)-Europium-antibody. Subsequently the amount of phosphorylated substrate was evaluated by measurement of the resonance energy transfer from the Europium-labelled anti-phospho(Ser/Thr) antibody to the Streptavidin-XLent.
As to `Cc1cc(O)ccc1-c1ccc2nc(Nc3ccccc3C#N)nn2c1` [Example 3.9, 2-{[6-(4-hydroxy-2-methylphenyl)[1,2,4]triazolo[1,5-a]pyridin-2-yl]amino}benzonitrile], the IC50 is 740 nM.
Then `CNC(=O)c1ccc(-c2ccc3nc(Nc4ccccc4C#N)nn3c2)cc1` [Example 3.10, 4-{2-[(2-cyanophenyl)amino] [1,2,4]triazolo[1,5-a]pyridin-6-yl}-N-methylbenzamide], with 24 nM; and `N#Cc1ccccc1Nc1nc2ccc(-c3cccc(F)c3)cn2n1` [Example 3.12, 2-{[6-(3-fluorophenyl)[1,2,4]triazolo[1,5-a]pyridin-2-yl]amino}benzonitrile], with 890 nM; and `COc1ccccc1-c1ccc2nc(Nc3ccccc3C#N)nn2c1` [Example 3.13, 2-{[6-(2 methoxyphenyl)[1,2,4]triazolo[1,5-a]pyridin-2-yl]amino}benzonitrile], with 1200 nM.
Then `N#Cc1ccccc1Nc1nc2ccc(-c3ccc(CO)cc3)cn2n1` [Example 3.14, 2-({6-[4-(hydroxymethyl)phen-yl][1,2,4]triazolo[1,5-a]pyridin-2-yl}amino)benzonitrile], with 770 nM; and `N#Cc1ccccc1Nc1nc2ccc(-c3cccc(O)c3)cn2n1` [Example 3.17, 2-{[6-(3-hydroxyphenyl)[1,2,4]triazolo[1,5-a]pyridin-2-yl]amino}benzonitrile], with 28 nM; and `COc1c(C)cc(-c2ccc3nc(Nc4ccccc4C#N)nn3c2)cc1C` [Example 3.19, 2-{[6-(4-methoxy-3,5-dimethylphenyl)[1,2,4]triazolo[1,5-a]pyridin-2-yl]amino}benzonitrile], with 96 nM.
For `N#Cc1ccc(-c2ccc3nc(Nc4ccccc4C#N)nn3c2)cc1` [Example 3.20, 2-{[6-(4-cyanophenyl)[1,2,4]triazolo[1,5-a]pyridin-2-yl]amino}benzonitrile], the IC50 turned out to be 1500 nM.
For the compound `N#Cc1ccccc1Nc1nc2ccc(-c3ccc4[nH]ccc4c3)cn2n1` [Example 3.21, 2-{[6-(1H-indol-5-yl)[1,2,4]triazolo[1,5-a]pyridin-2-yl]amino}benzonitrile], the concentration for half-maximal inhibition (IC50) is 210 nM. This IC50 lies about 7.1-fold lower than the previous one.
Then `N#Cc1ccccc1Nc1nc2ccc(-c3ccc(N)cc3)cn2n1` [Example 4.2, 2-{[6-(4-aminophenyl)[1,2,4]triazolo[1,5-a]pyridin-2-yl]amino}benzonitrile], with 46 nM; and `CC(=O)Nc1ccc(-c2ccc3nc(Nc4ccccc4C#N)nn3c2)cc1` [Example 4.3, N-(4-{2-[(2-cyanophenyl)amino][1,2,4]triazolo[1,5-a]pyridin-6-yl}phenyl)acetamide], with 28 nM.
Consider `COc1ccccc1Nc1nc2ccc(-c3ccc(N)cc3)cn2n1` [Example 5.2, 6-(4-aminophenyl)-N-(2-methoxyphenyl)[1,2,4]triazolo[1,5-a]pyridin-2-amine], for which the half-inhibitory concentration (IC50) came to 72 nM.
Then `COc1ccccc1Nc1nc2ccc(-c3ccc(NC(C)=O)cc3)cn2n1` [Example 5.3, N-(4-{2-[(2-methoxyphenyl)amino][1,2,4]triazolo[1,5-a]pyridin-6-yl}phenyl)acetamide], with 76 nM; and `O=C(CCl)Nc1ccc(-c2ccc3nc(Nc4ccccc4C(F)(F)F)nn3c2)cc1` [Example 6.3, 2-chloro-N-[4-(2-{[2-(trifluoromethyl)phenyl]amino}[1,2,4]triazolo[1,5-a]pyridin-6-yl)phenyl]acetamide], with 220 nM.
Then `COc1ccccc1Nc1nc2ccc(-c3cccc(NS(C)(=O)=O)c3)cn2n1` [Example 8.3, N-(3-{2-[(2-methoxyphenyl)amino][1,2,4]triazolo[1,5-a]pyridin-6-yl}phenyl)methanesulfonamide], with 190 nM.
Compound `COc1ccccc1Nc1nc2ccc(-c3cccc(NC(=O)NC(C)C)c3)cn2n1` [Example 8.4, 1-(3-{2-[(2-methoxyphenyl)amino][1,2,4]triazolo[1,5-a]pyridin-6-yl}phenyl)-3-propan-2-ylurea] yielded an IC50 of 92 nM.
Turning to `CCOC(=O)c1cccc(-c2ccc3nc(Nc4ccccc4C#N)nn3c2)c1` [Example 9.1, ethyl 3-{2-[(2-cyanophenyl)amino][1,2,4]triazolo[1,5-a]pyridin-6-yl}benzoate], half-maximal inhibition (IC50) was put at 500 nM. Against the preceding compound, the IC50 is about 5.4-fold higher.
`N#Cc1ccccc1Nc1nc2ccc(-c3cccc(C(=O)O)c3)cn2n1` [Example 9.2, 3-{2-[(2-cyanophenyl)amino][1,2,4]triazolo[1,5-a]pyridin-6-yl}benzoic acid] registered an IC50 of 72 nM. Against the preceding compound, the IC50 is about 6.9-fold lower.
`CC(C)NC(=O)c1cccc(-c2ccc3nc(Nc4ccccc4C#N)nn3c2)c1` [Example 9.4, 3-{2-[(2-cyanophenyl)amino][1,2,4]triazolo[1,5-a]pyridin-6-yl}-N-(propan-2-yl)benzamide] returned an IC50 of 8.8 nM.
Then `O=C(NCC(F)(F)F)c1ccc(-c2ccc3nc(Nc4cccnc4OCC(F)(F)F)nn3c2)cc1` [Example 11.001, 4-(2-{[2-(2,2,2-trifluoroethoxy)pyridin-3-yl]amino}[1,2,4]triazolo[1,5-a]-pyridin-6-yl)-N-(2,2,2-trifluoroethyl)benzamide], with no more than 1 nM.
Then `CC(C)(C)NC(=O)c1ccc(Nc2nc3ccc(-c4ccc(C(=O)NCC(F)(F)F)cc4)cn3n2)c(OCC(F)(F)F)c1` [Example 11.002, N-tert-butyl-3-(2,2,2-trifluoroethoxy)-4-[(6-{4-[(2,2,2-trifluoroethyl)-carbamoyl]phenyl}[1,2,4]triazolo[1,5-a]pyridin-2-yl)amino]benzamide], with no more than 1 nM; and `CCOc1ncccc1Nc1nc2ccc(-c3ccc(C(=O)NCC(F)(F)F)cc3)cn2n1` [Example 11.003, 4-{2-[(2-ethoxypyridin-3-yl)amino][1,2,4]triazolo[1,5-a]pyridin-6-yl}-N-(2,2,2-trifluoroethyl)benzamide], with 3.74 nM.
Then `COc1cc(C(=O)NC(C)(C)C)ccc1Nc1nc2ccc(-c3ccc(C(=O)NCC(F)(F)F)cc3)cn2n1` [Example 11.005, N-tert-butyl-3-methoxy-4-[(6-{4-[(2,2,2-trifluoroethyl)carbamoyl]phenyl}[1,2,4]triazolo[1,5-a]pyridin-2-yl)amino]benzamide], with 1.01 nM.
`CCNC(=O)c1ccc(Nc2nc3ccc(-c4ccc(C(=O)NCC(F)(F)F)cc4)cn3n2)c(OC)c1` [Example 11.006, N-ethyl-3-methoxy-4-[(6-{4-[(2,2,2-trifluoroethyl)carbamoyl]phenyl}[1,2,4]triazolo[1,5-a]pyridin-2-yl)amino]benzamide] returned an IC50 of no more than 1 nM.
Then `CNCCN(C)C(=O)c1ccc(Nc2nc3ccc(-c4ccc(C(=O)NCC(F)(F)F)cc4)cn3n2)c(OC)c1` [Example 11.007, 3-methoxy-N-methyl-N-[2-(methylamino)ethyl]-4-[(6-{4-[(2,2,2-trifluoroethyl)carbamoyl]phenyl}[1,2,4]triazolo[1,5-a]pyridin-2-yl)amino]benzamide], with no more than 1 nM; and `N#Cc1ccccc1Nc1nc2ccc(-c3ccc(C(=O)O)cc3)cn2n1` [Example 11.009, 4-{2-[(2-cyanophenyl)amino][1,2,4]triazolo[1,5-a]pyridin-6-yl}benzoic acid], with 1550 nM.
`N#Cc1ccccc1Nc1nc2ccc(-c3ccc(C(=O)NCC(F)(F)F)cc3)cn2n1` [Example 11.010, 4-{2-[(2-cyanophenyl)amino][1,2,4]triazolo[1,5-a]pyridin-6-yl}-N-(2,2,2-trifluoroethyl)benzamide] had an IC50 of 1.61 nM.
As to `CC(C)(C)CNC(=O)c1ccc(-c2ccc3nc(Nc4ccccc4C#N)nn3c2)cc1` [Example 11.012, 4-{2-[(2-cyanophenyl)amino][1,2,4]triazolo[1,5-a]pyridin-6-yl}-N-(2,2-dimethylpropyl)benzamide], the 50% inhibitory concentration (IC50) amounted to 8.28 nM.
Then `CC(C)(C)OC(=O)c1ccc(-c2ccc3nc(Nc4ccccc4C#N)nn3c2)cc1` [Example 11.013, tert-butyl 4-{2-[(2-cyanophenyl)amino][1,2,4]triazolo[1,5-a]pyridin-6-yl}benzoate], with 1060 nM.
